US8187822B2, “Methods to identify modulators” (Givaudan S.A., priority 2007, dated 2012)

Molecular target: T1, TAS2R46 (Homo sapiens, UniProt P59540)
T1 construct: The full length gene of human TAS2R44 was amplified by polymerase chain reaction (PCR) using gene-specific primers that span the entire coding region; RSS tag (first 45 amino acids of rat somatostatin receptor subtype 3) (N); expressed in transfected cells; host or cells: HEK293T/Gα16-gustducin 44 cells, transient transfection
T1 sequence (P59540 1-309): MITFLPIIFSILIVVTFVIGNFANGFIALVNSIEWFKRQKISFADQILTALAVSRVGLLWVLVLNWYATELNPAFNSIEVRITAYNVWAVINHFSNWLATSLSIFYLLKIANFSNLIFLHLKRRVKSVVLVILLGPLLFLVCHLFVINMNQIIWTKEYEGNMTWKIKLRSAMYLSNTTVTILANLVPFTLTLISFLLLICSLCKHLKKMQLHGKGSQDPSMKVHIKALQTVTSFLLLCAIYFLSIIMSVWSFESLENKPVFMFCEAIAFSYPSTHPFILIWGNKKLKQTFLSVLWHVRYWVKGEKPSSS
Assay: Fluo-4 calcium assay, HEK293T/Gα16-gustducin44 cells transiently expressing TAS2R46
Type: cell-based
Experimental: On day 0, the HEK293T/Gα16-gustducin 44 cells are plated in 96-well black wall, clear-bottom plates at a density of 14,000 cells per well and grown overnight in growth media (DMEM with 10% (v/v) heat-inactivated fetal bovine serum, 2 mM L-glutamine, 100 units/ml penicillin, 100 μg/ml streptomycin).
On day 1, the media is changed to an antibiotic-free and serum-free DMEM.
The cells are transfected with Lipofectamine 2000 (Invitorgen) according to the manufacturers recommendations.
Per well of a 96-well plate, 150 ng of vector DNA (SABTR expression vectors or TAS2R16 expression vector from example 1) is diluted in 12.5 μl of DMEM. In a second tube, 0.3 μl of Lipofectamine 2000 is diluted in 12.5 μl of DMEM and incubated for 5 min at room temperature. After the 5 min, both solutions are mixed and incubated for 20 min at RT. The growth medium in the plate is exchanged by 50 μl of DMEM and 25 μl of the lipofectamine/DNA mixture is incubated on the cells for 3-4 hours at 37° in a humidified atmosphere. This mixture is then replaced with an antibiotic-free, serum-containing DMEM.
24 hours post transfection, the cells are used in the Fluo-4 Calcium Assay described in Example 3.
At day 0, the HEK293T cell line expressing Gα16-gustducin44 and a TAS2R bitter taste receptor formed as described in examples 2b or 2c was seeded in antibiotic-free growth medium (standard DMEM with 10% (v/v) heat-inactivated fetal bovine serum, 2 mM L-glutamine[…]) into black wall/clear bottom 96-well plates, coated with poly(ethylenimine) (0.005% v/v) at a concentration of 15,000 cells per well and incubated for 48 hours in humidified atmosphere (37° C., 5% CO2).
At the time of the assay, the growth medium was discarded and the cells were in humidified atmosphere (37° C., 5% CO2) for 1 hour with 50 μl of loading buffer consisting of 1.5 μM Fluo-4 AM and […] probenicid (Sigma-Aldrich, St. Louis, Mo., US) in DMEM.
Afterwards, the 96-well plate was washed 5 times with 100 μl of assay buffer (130 mM NaCl, 5 mM KCl, 10 mM HEPES, 2 mM CaCl2, and 5 mM dextrose, pH 7.4) per well, using an automated plate washer (BioTek). The plate was further incubated for 30 minutes at room temperature in the dark to allow for complete de-esterification of the Fluo-4. Afterwards the plate was washed 5 times with 100 μl of assay buffer per well, and reconstituted with 100 μl of assay buffer per well.
For assay reading, the plate was placed in a Fluorometric Imaging Plate Reader (FLIPR) (FLIPR-TETRA™, Molecular Devices, Sunnyvale, Calif., US), and receptor activation was initiated by addition of 100 μl of a twofold concentrated agonist stock solution (to give the desired agonist end concentration when added to the 100 microliter assay buffer volume), which was prepared in assay buffer.
Fluorescence was continuously monitored for 20 seconds to give a signal baseline (averaged to give F0) prior to agonist addition and for 120 seconds after agonist addition. The change in signal divided by F0 gives ΔF/F0 indicated in the table, with ΔF being the maximum signal occurring within the 120 seconds minus the minimum signal (occurring within the 120 seconds after agonist addition.
All data was collected from at least two independent experiments each carried out in triplicate.
The obtained calcium signals were corrected for the response of cells expressing only the G Protein α subunit (Gα16-gustducin44) and normalized to the fluorescence of cells prior to the stimulus using ΔF/F0 (Fmax−Fmin/F0).
The intracellular calcium response following addition of sucralose was determined in HK293T cell line stably expressing Gα16-gustducin44 and transiently expressing TAS2R46 formed as described in example 2b.

OC[C@H]1O[C@H](O[C@]2(CCl)O[C@H](CCl)[C@@H](O)[C@@H]2O)[C@H](O)[C@@H](O)[C@H]1Cl [Sucralose, sucralose]
calcium signaling in TAS2R46 cells, in words: significant concentration-dependent increase in calcium signaling | TAS2R46 ΔF/F0 (sucralose 0.3906 mM): 0.041 | TAS2R46 ΔF/F0 (sucralose 0.7813 mM): 0.038 | TAS2R46 ΔF/F0 (sucralose 1.5625 mM): 0.035 | TAS2R46 ΔF/F0 (sucralose 3.1250 mM): 0.036 | TAS2R46 ΔF/F0 (sucralose 6.2500 mM): 0.057 | TAS2R46 ΔF/F0 (sucralose 12.5000 mM): 0.075 | TAS2R46 ΔF/F0 (sucralose 25.0000 mM): 0.106 | TAS2R46 ΔF/F0 (sucralose 50.0000 mM): 0.171 | TAS2R46 ΔF/F0 (sucralose 100.0000 mM): 0.258
